Measurements: publication PMC9060465 (Proceedings of the National Academy of Sciences of the …, 2022)

How the values were obtained:
[1] = target: T1, human GIPR (Homo sapiens, UniProt P48546); assay: [125I]GIP(1-42) competition binding, GIPR-expressing cell membranes; details: membranes of HEK293 cells expressing human GIPR, albumin-free, geometric mean (SEM, n)
T1 construct: expressed in transfected cells; host or cells: HEK293
T1 sequence (P48546 22-466): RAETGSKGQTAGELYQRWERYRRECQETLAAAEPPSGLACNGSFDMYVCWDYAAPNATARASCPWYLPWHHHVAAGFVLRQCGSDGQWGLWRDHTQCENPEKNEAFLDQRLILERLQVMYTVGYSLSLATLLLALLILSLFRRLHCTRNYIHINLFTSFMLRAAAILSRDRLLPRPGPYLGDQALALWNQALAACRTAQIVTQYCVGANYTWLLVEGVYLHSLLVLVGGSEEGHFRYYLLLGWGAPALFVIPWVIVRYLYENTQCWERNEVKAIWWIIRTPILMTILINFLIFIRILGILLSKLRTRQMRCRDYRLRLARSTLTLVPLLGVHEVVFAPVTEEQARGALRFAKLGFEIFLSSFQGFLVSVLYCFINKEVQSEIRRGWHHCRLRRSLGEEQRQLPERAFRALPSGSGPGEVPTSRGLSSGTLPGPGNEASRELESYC
Description: (§1) We note that the albumin-binding propensity of fatty acid-modified peptides can confound a pharmacological comparison of molecules, given the common use of albumin and serum as nonspecific blocking agents in biological assays. Therefore, to obviate this, entirely albumin-free assays supplemented with bovine casein or bacitracin were used to prevent nonspecific binding ([10]).
(§2) Functional potency (EC50)
(§3) and efficacy (% Top) of ligands to induce Gα s -GTPγS binding and cAMP accumulation in HEK293 cells expressing GIPR were determined. The equilibrium affinity (KD) of
(§4) ligands for the immobilized ectodomain of the GIPR were quantified by surface plasmon resonance. […]
(§5) SPR data were analyzed using T200 evaluation software (Cytiva). All data are presented as geometric means with SEM and n values
(§6) according to established practices. ND, not determined. NA, not applicable.

[2] = target: T1, human GIPR; assay: GIPR Gαs [35S]GTPγS binding, GIPR-expressing membranes; format: biochemical; details: Gαs-GTPγS binding, GIPR-expressing membranes; albumin-free; geometric mean (SEM, n); read-out: GIPR GTPγS Recruitment EC50
Procedure: (§7) Fig. 4. […] (B) Ligand-induced GTPγS binding of Gαs was performed using the GIPR-expressing membranes. […] (C) Agonist-stimulated cAMP production was measured in human GIPR expressing HEK293 cells. […] (E) Ligand-induced GTPγS binding of Gαs was performed using the GLP-1R-expressing membranes. […] (F) Agonist-stimulated cAMP production was measured in human GLP-1R-expressing HEK293 cells. […] Data presented are representative of n ≥ 3 independent experiments. Summarized data are shown in SI Appendix, Table 2. log M; log Molar.
as §1, §2, §3, §4, §5, §6

[3] = target: T1, human GIPR; assay: GIPR low density cAMP accumulation in HEK293 cells; format: cell-based
Procedure: as §7, §1, §2, §3, §4, §5, §6

[4] = target: T2, GLP-1R (Homo sapiens, UniProt P43220); assay: Ligand-induced GLP-1R internalization, SNAP-GLP-1R HEK293 cells; format: cell-based; details: efficacy (% Top), percent internalization compared to maximal GLP-1; (SEM)
Target sequence in this assay (P43220 24-463): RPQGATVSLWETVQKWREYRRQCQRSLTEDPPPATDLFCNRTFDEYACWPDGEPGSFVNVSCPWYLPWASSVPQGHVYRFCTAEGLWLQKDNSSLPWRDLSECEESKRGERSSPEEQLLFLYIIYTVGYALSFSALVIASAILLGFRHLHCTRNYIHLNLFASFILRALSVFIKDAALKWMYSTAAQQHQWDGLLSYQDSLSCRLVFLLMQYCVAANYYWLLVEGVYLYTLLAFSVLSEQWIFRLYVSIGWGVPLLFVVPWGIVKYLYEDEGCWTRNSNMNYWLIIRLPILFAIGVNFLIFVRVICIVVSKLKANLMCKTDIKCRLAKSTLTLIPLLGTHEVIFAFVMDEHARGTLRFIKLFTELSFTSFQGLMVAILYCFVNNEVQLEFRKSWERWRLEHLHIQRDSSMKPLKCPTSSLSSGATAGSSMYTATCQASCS

[5] = target: T2, GLP-1R; assay: β-arrestin 1 recruitment to the GLP-1R, NanoBRET; format: cell-based; parameters: expressed in transfected cells; details: efficacy (% Top), relative efficacy to GLP-1; (SEM)
Procedure: Functional potency (EC50) […]
and efficacy (% Top) of ligands to induce Gα s -GTPγS binding and cAMP accumulation in HEK293 cells expressing GIPR were determined. The equilibrium affinity (KD) of ligands for the immobilized ectodomain of the GIPR were quantified by surface plasmon resonance. Middle Panel: The affinity (Ki) of ligands for the GLP-1R was […]
(§8) Functional potency (EC50) and efficacy (% Top) of ligands to induce Gα s-GTPγS binding and cAMP accumulation in HEK293 cells expressing GLP-1R were determined. The equilibrium affinity (KD) of ligands for the immobilized ectodomain of the GLP-1R were quantified by surface plasmon resonance. […]
recruitment to the GLP-1R were determined using the NanoBRET approach. The potency (EC50) and efficacy (% Top) for ligands to induce GLP-1R Internalization were determined using diffusion-enhanced resonance energy transfer. […]
relative efficacy for NanoBRET assays. SPR data were analyzed using T200 evaluation software (Cytiva). All data are presented as geometric means with SEM and n values according to established practices. ND, not determined. NA, not applicable.
Target sequence in this assay (P43220 24-463): as above
Target sequence in this assay (P49407 whole entry partner): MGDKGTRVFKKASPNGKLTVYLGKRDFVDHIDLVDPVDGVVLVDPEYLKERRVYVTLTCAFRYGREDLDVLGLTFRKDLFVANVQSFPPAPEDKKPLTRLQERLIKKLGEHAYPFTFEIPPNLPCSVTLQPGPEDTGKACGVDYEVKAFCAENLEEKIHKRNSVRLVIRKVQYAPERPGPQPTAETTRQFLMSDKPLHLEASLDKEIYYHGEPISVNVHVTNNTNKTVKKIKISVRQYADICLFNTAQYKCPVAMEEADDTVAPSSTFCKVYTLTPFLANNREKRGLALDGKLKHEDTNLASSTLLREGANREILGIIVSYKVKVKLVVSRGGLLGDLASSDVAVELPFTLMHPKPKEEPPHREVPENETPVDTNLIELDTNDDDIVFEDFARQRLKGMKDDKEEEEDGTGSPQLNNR

[6] = target: T2, GLP-1R; assay: GLP-1R Gαs [35S]GTPγS binding, GLP-1R-expressing membranes; format: biochemical; parameters: expressed in transfected cells; host or cells: HEK293; details: efficacy (% Top), normalized to GLP-1(7-36); (SEM)
Procedure: as §7
as §1, with “([10]). […]” for “([10]).”
(§9) Middle Panel: The affinity (Ki) of ligands for the GLP-1R was […]
as §8
(§10) SPR data were analyzed using T200 evaluation software (Cytiva). All data are presented as geometric means with SEM and n values according to established practices. ND, not determined. NA, not applicable.
Target sequence in this assay (P43220 24-463): as the sequence (P43220 24-463) above

[7] = target: T2, GLP-1R; assay: GLP-1R low density cAMP accumulation in HEK293 cells; format: cell-based; parameters: expressed in transfected cells; host or cells: HEK293; details: efficacy (% Top), normalized to GLP-1(7-36); (SEM)
Procedure: as §7
as §1, with “([10]). […]” for “([10]).”
as §9, §8, §10
Target sequence in this assay (P43220 24-463): as above

[8] = target: T2, GLP-1R; assay: GRK2 recruitment to the GLP-1R, NanoBRET; format: cell-based; parameters: expressed in transfected cells; host or cells: freestyle HEK cells; details: efficacy (% Top), relative to maximal GLP-1; (SEM)
Procedure: After 48 h, transfected cells were incubated in phosphate-buffered saline (PBS) containing 0.1% (wt/vol) bovine casein and varying concentrations of the ligands. […]
The potency (EC50) and efficacy (% Top) for ligands to induce GLP-1R Internalization were
determined using diffusion-enhanced resonance energy transfer.
relative efficacy for NanoBRET assays. SPR data were analyzed using T200 evaluation software (Cytiva). All data are presented as geometric means with SEM and n values
as §6
Target sequence in this assay (P43220 24-463): as above
Target sequence in this assay (P25098 whole entry partner): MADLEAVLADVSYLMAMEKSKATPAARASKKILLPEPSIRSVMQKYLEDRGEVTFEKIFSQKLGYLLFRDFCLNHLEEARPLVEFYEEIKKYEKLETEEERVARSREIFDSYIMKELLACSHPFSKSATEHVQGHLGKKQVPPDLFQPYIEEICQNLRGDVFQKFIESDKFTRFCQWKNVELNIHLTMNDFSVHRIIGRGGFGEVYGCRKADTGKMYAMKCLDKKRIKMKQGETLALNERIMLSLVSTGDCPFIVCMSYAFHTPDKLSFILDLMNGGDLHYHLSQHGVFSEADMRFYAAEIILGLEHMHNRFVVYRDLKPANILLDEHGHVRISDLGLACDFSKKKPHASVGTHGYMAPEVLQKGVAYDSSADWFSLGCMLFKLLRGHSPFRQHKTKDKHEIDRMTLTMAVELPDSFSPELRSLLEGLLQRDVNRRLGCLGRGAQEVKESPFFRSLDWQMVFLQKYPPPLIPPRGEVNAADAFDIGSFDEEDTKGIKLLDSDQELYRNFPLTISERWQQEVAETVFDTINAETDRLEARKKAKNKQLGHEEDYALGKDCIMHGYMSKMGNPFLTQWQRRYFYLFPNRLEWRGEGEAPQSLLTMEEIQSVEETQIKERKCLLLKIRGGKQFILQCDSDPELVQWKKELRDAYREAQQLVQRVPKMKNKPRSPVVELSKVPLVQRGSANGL

CC[C@H](C)[C@H](NC(=O)[C@H](Cc1ccccc1)NC(=O)[C@H](CCC(=O)O)NC(=O)[C@H](CCCCN)NC(=O)[C@H](C)NC(=O)[C@H](C)NC(=O)[C@H](CCC(N)=O)NC(=O)CNC(=O)[C@H](CCC(=O)O)NC(=O)[C@H](CC(C)C)NC(=O)[C@H](Cc1ccc(O)cc1)NC(=O)[C@H](CO)NC(=O)[C@H](CO)NC(=O)[C@@H](NC(=O)[C@H](CC(=O)O)NC(=O)[C@H](CO)NC(=O)[C@@H](NC(=O)[C@H](Cc1ccccc1)NC(=O)[C@@H](NC(=O)CNC(=O)[C@H](CCC(=O)O)NC(=O)[C@H](C)NC(=O)[C@@H](N)Cc1ccc(O)cc1)[C@@H](C)O)[C@@H](C)O)C(C)C)C(=O)N[C@@H](C)C(=O)N[C@@H](Cc1c[nH]c2ccccc12)C(=O)N[C@@H](CC(C)C)C(=O)N[C@H](C(=O)N[C@@H](CCCCN)C(=O)NCC(=O)N[C@@H](CCCNC(=N)N)C(N)=O)C(C)C [GLP-1 H7Y, reference compound]
Ki [1]: > 128 nM | EC50 [2]: > 1000 nM | EC50 ([3]; cAMP accumulation, HEK293 cells expressing GIPR, albumin-free, geometric mean (SEM, n)): > 4000 nM | GIPR Low Density cAMP Top ([3]; efficacy (% Top), normalized to GIP(1-42), (SEM)): 39.4(9.5) % | GLP-1R Internalization Top [4]: 73.1 (3.4) % | GLP-1R β-Arr1 Recruitment Top [5]: 35.3 (3.8) % | GLP-1R GTPγS Recruitment Top [6]: 80.7 (2.2) % | GLP-1R Low Density cAMP Top [7]: 104 (4) % | GLP-1R GRK2 Recruitment Top [8]: 54.5 (2.1) %
